The source made the active and inactive calls. The rule behind the calls is not given here. Side chains are listed from the residue outwards. Peptide text beside a SMILES is read from it. * marks the point of attachment. X1 = CC(=O)N1CCC(C(=O)N(CCCN2CCC(Cc3ccc(C(=O)*)cc3)CC2)c2ccc(C)c(Cl)c2)CC1; PEG12 = NCCOCCOCCOCCOCCOCCOCCOCCOCCOCCOCCOCCOCCC(=O)O
Key:
[1] = target: Envelope glycoprotein gp160 (Human immunodeficiency virus 1) (UniProt Q72502); experiment: Binding affinity to HIV1 GP41 using GP41 NHR derived N39 peptide assessed as change in enthalpy by isothermal titration calorimetry
[2] = target: C-C chemokine receptor type 5 (Homo sapiens, UniProt P51681); experiment: Antagonist activity at CCR5 (unknown origin) expressed in HEK293 cells co-expressing Galpha16 assessed as intracellular calcium change incubated for 60 mins by Fluo-4 AM calcium flux based FLIPR assay; format: functional, cell-based
[3] = target: Envelope glycoprotein gp160 (Human immunodeficiency virus 1) (UniProt Q72502); experiment: Binding affinity to HIV1 GP41 using GP41 NHR derived N39 peptide assessed as change in entropy by isothermal titration calorimetry
[4] = Proteolytic stability in rat plasma assessed as parent compound remaining incubated for 4 hrs by RP-UHPLC analysis; format: ADME, cell-free; details: read-out: Stability
[5] = target: Envelope glycoprotein gp160 (Human immunodeficiency virus 1) (UniProt Q72502); experiment: Binding affinity to HIV1 GP41 using GP41 NHR derived N39 peptide assessed as binding constant by isothermal titration calorimetry
[6] = Proteolytic stability in rat kidney incubated upto 240 mins by RP-UHPLC analysis; format: ADME, tissue-based; details: 4 h
[7] = tested on: Human immunodeficiency virus 1; experiment: Antiviral activity against HIV-1 Bal-R5 infected in human CEMx174 5.25M7 cells assessed as reduction in p24 antigen level measured after 4 days by ELISA; format: functional, organism-based; details: Human immunodeficiency virus 1, Bal-R5, CEMx174 5.25M7, 96 h
[8] = target: Envelope glycoprotein gp160 (Human immunodeficiency virus 1) (UniProt Q72502); experiment: Binding affinity to HIV1 GP41 using GP41 NHR derived N39 peptide at 100 uM incubated for 30 mins by PAGE gel electrophoresis analysis
[9] = tested on: Human immunodeficiency virus 1; experiment: Antiviral activity against HIV-1 clinical isolate X4-92UG024 infected in human CEMx174 5.25M7 cells assessed as reduction in p24 antigen level measured after 4 days by ELISA; format: functional, organism-based; details: Human immunodeficiency virus 1, clinical isolate X4-92UG024, CEMx174 5.25M7, 96 h
[10] = tested on: Human immunodeficiency virus 1; experiment: Antiviral activity against HIV-1 clinical isolate 97 TH-NP1525 infected in human CEMx174 5.25M7 cells assessed as reduction in p24 antigen level measured after 4 days by ELISA; format: functional, organism-based; details: Human immunodeficiency virus 1, clinical isolate 97 TH-NP1525, CEMx174 5.25M7, 96 h
[11] = tested on: Human immunodeficiency virus 1; experiment: Antiviral activity against HIV-1 clinical isolate R5-J32228M4 infected in human CEMx174 5.25M7 cells assessed as reduction in p24 antigen level measured after 4 days by ELISA; format: functional, organism-based; details: Human immunodeficiency virus 1, clinical isolate R5-J32228M4, CEMx174 5.25M7, 96 h
[12] = tested on: Human immunodeficiency virus 1; experiment: Antiviral activity against HIV-1 clinical isolate R5-91US-4 infected in human CEMx174 5.25M7 cells assessed as reduction in p24 antigen level measured after 4 days by ELISA; format: functional, organism-based; details: Human immunodeficiency virus 1, clinical isolate R5-91US-4, CEMx174 5.25M7, 96 h
[13] = target: Envelope glycoprotein gp160 (Human immunodeficiency virus 1) (UniProt Q72502); experiment: Binding affinity to HIV1 GP41 using GP41 NHR derived N39 peptide assessed as melting temperature incubated for 30 mins by circular dichroism spectroscopy
[14] = tested on: Human immunodeficiency virus 1; experiment: Antiviral activity against HIV-1 clinical isolate X4-89BZ167 infected in human CEMx174 5.25M7 cells assessed as reduction in p24 antigen level measured after 4 days by ELISA; format: functional, organism-based; details: Human immunodeficiency virus 1, clinical isolate X4-89BZ167, CEMx174 5.25M7, 96 h
[15] = Proteolytic stability in rat liver assessed as parent compound remaining incubated for 4 hrs by RP-UHPLC analysis; format: ADME, tissue-based; details: read-out: Stability

C-C chemokine receptor type 5, sequence (P51681 whole entry): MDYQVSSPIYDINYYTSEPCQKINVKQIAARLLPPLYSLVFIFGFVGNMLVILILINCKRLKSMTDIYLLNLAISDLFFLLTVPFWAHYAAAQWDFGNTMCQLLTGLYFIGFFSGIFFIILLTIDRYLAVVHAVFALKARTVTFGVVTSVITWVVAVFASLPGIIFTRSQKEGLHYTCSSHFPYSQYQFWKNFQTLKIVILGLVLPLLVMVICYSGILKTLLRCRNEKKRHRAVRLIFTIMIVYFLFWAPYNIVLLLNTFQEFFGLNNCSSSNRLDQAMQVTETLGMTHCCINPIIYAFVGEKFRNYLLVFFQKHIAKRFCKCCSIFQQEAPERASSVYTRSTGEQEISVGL

Compound: CC[C@H](C)[C@H](NC(C)=O)C(=O)N[C@@H](CCC(=O)O)C(=O)N[C@@H](CCC(=O)O)C(=O)N[C@@H](CC(C)C)C(=O)N[C@H](C(=O)N[C@@H](CCCNC(=N)N)C(=O)N[C@@H](C)C(=O)N[C@@H](C)C(=O)N[C@@H](CCC(N)=O)C(=O)N[C@@H](CCC(=O)O)C(=O)N[C@@H](CCC(N)=O)C(=O)N[C@@H](CCC(N)=O)C(=O)N[C@@H](CCCNC(=N)N)C(=O)N[C@@H](CCCCN)C(=O)N[C@@H](CC(N)=O)C(=O)N[C@@H](CCC(=O)O)C(=O)N[C@@H](CCC(=O)O)C(=O)N[C@@H](C)C(=O)N[C@@H](CC(C)C)C(=O)N[C@@H](CCCNC(=N)N)C(=O)N[C@@H](CCC(=O)O)C(=O)N[C@@H](CC(C)C)C(=O)N[C@@H](CCCCNC(=O)CCOCCOCCOCCOCCOCCOCCOCCOCCOCCOCCOCCOCCNC(=O)c1ccc(CC2CCN(CCCN(C(=O)C3CCN(C(C)=O)CC3)c3ccc(C)c(Cl)c3)CC2)cc1)C(N)=O)[C@@H](C)CC (Ac-IEELIRAAQEQQRKNEEALRELK([PEG12-X1])-NH2)
- deltaH [1]: -1.4 10^4cal/mol
- IC50 [2]: 19.2 nM
- deltaS [3]: -23.2 cal/mol/deg
- remaining at 4 h [4]: 100%
- K [5]: 2.1 10^5/M
- Stability [6]: Stable
- EC50 [7]: 0.09 nM
- Activity [8]: Active
- EC50 [9]: 1.21 nM
- EC50 [10]: 0.33 nM
- EC50 [11]: 16.2 nM
- EC50 [12]: 1.79 nM
- Tm [13]: 56 °C
- EC50 [14]: 2.75 nM
- remaining at 4 h [15]: > 72%
